From ChEMBL document CHEMBL1126500, “Kinase bypass: A new strategy for anti-HIV drug design” (Bioorg Med Chem Lett, 1993)

Key:
C8166 = experiment: Compound was tested for its ability to inhibit the replication of HIV-1 in C8166 T-cells; format: functional; settings: Homo sapiens, read-out: ED50 (the source's name)
[1] = Toxic dose required to inhibit the replication of HIV-1 in C8166 T-cells; format: ADME, cell-based; settings: human, read-out: TD50 (the source's name)

SMILES | EC50 (C8166) | CC50 [1]
CC(=O)O[C@H]1C[C@H](n2cc(C)c(=O)[nH]c2=O)O[C@@H]1COP(=O)(OCC(Cl)(Cl)Cl)OCC(Cl)(Cl)Cl | 30 µM | > 200 µM
Cc1cn([C@H]2C[C@H](OC(=O)C(C)C)[C@@H](COP(=O)(OCC(Cl)(Cl)Cl)OCC(Cl)(Cl)Cl)O2)c(=O)[nH]c1=O | 40 µM | > 200 µM
Cc1cn([C@H]2C[C@H](OC=O)[C@@H](COP(=O)(OCC(Cl)(Cl)Cl)OCC(Cl)(Cl)Cl)O2)c(=O)[nH]c1=O | 100 µM | > 200 µM
CCC(=O)O[C@H]1C[C@H](n2cc(C)c(=O)[nH]c2=O)O[C@@H]1COP(=O)(OCC(Cl)(Cl)Cl)OCC(Cl)(Cl)Cl | 35 µM | 80 µM
CCCC(=O)O[C@H]1C[C@H](n2cc(C)c(=O)[nH]c2=O)O[C@@H]1COP(=O)(OCC(Cl)(Cl)Cl)OCC(Cl)(Cl)Cl | 75 µM | 80 µM

The next lines start with results.

EC50 (C8166) | SMILES | CC50 [1]
50 µM | Cc1cn([C@H]2C[C@H](OC(=O)C(Cl)(Cl)Cl)[C@@H](COP(=O)(OCC(Cl)(Cl)Cl)OCC(Cl)(Cl)Cl)O2)c(=O)[nH]c1=O | > 200 µM
50 µM | Cc1cn([C@H]2C[C@H](OC(=O)CCl)[C@@H](COP(=O)(OCC(Cl)(Cl)Cl)OCC(Cl)(Cl)Cl)O2)c(=O)[nH]c1=O | 50 µM
> 200 µM | CC(=O)O[C@H]1C[C@H](n2cc(C)c(=O)[nH]c2=O)O[C@@H]1CO | > 200 µM
0.01 µM | Cc1cn([C@H]2C[C@H](N=[N+]=[N-])[C@@H](CO)O2)c(=O)[nH]c1=O [ZIDOVUDINE] | > 200 µM
